Patent US20190185439A1, “RADIOFLUORINATED CARBOXIMIDAMIDES AS IDO TARGETING PET TRACER FOR CANCER IMAGING” (H. LEE MOFFITT CANCER CENTER & RESEARCH INSTITUTE, INC., priority 2016, published 2019)
One block for each molecule: values may come before it.

How the values were obtained:
Human IDO = molecular target: T1, Human IDO (Homo sapiens, UniProt P14902); test: IDO enzyme assay; format: biochemical; settings: enzyme activity remaining at different inhibitor concentrations
T1 construct: purchased enzolifesciences ALX-201-333-C050
Protocol: The assays were performed at room temperature as described as literature reported with minor revision. […] In each well of 96 well-plate, 10 μL of Human IDO (0.05 mg/mL in KHPO4, 50 mM, PH 6.5) was added into 39 μL buffers (KHPO4, 50 mM, PH 6.5) and 1 μL inhibitor buffer in DMSO (2000, 600, 200, 60, 20, 6, 2, 0.6, 0.2 μM). Then, 50 μL the substrate buffer (4 mM L-tryptophan, 40 mM ascorbate, 20 μM methylene blue, 0.2 mg/mL catalase) was mixed into each well and incubated at 37° C. for 2 hours. Then, 10 μL of 6.1N trichloroacetic acid was mixed into each well and incubated at 52° C. for 30 min to hydrolyze N-formylkynurenine produced by IDO to kynurenine. The reaction mixture was incubated with 100 μL of 0.02 g/mL p-(dimethylamino)benzaldehyde in acetic acid at room temperature for 10 minutes. […] L-Kynurenine used as the standard, was prepared in a series of concentrations (1000, 500, 200, 100, 50, 20, 10 μM). The percent inhibition at individual concentrations was determined and the average values of duplicates were obtained. The data was processed using nonlinear regression to generate IC50 values (Prism Graphpad).

[1] = molecular target: T2, IDO in IFN-γ induced HeLa cells (Homo sapiens, UniProt P14902); test: IDO Hela cells assay (kynurenine formation); format: cell-based; settings: for IFN-γ induced IDO activity in HeLa cell lines inhibited by IDO inhibitors: FIG. 2
T2 construct: native IDO in HeLa cells; endogenous in cells; host or cells: HeLa cells stimulated with human IFN-γ
Protocol: Hela cells assay was carried out according to the reference (Takikawa, O., et al. (1988). “Mechanism of interferon-gamma action. Characterization of indoleamine 2,3-dioxygenase in cultured human cells induced by interferon-gamma and evaluation of the enzyme-mediated tryptophan degradation in its anticellular activity.” J Biol Chem 263(4):2041-2048; Yue, E. W., et al. (2009). “Discovery of potent competitive inhibitors of indoleamine 2,3-dioxygenase with in vivo pharmacodynamic activity and efficacy in a mouse melanoma model.” J Med Chem 52(23): 7364-7367) with minor modification. HeLa cells were routinely maintained in Earle's Minimum Essential Medium (EMEM) (ATCC 30-2003) and 10% fetal bovine serum. Cells were kept at 37° C. in a humidified incubator supplied with 5% CO2. The assay was performed as follows: HeLa cells were seeded in a 96 well culture plate at a density of 5×10^3 per well in 100 μL culture media. After grown overnight (16 h), human IFN-γ (50 ng/mL final concentration) and serial dilutions of compounds in 100 μL culture medium per well were added into cells. After an additional 48 hours of incubation, 140 μL of the supernatant per well was transferred to a new 96 well plate. Ten microliters of 6.1 N trichloroacetic acid were mixed into each well and incubated at 50° C. for 30 min to hydrolyze N-formylkynurenine produced by IDO to kynurenine. The reaction mixture was then centrifuged for 10 min at 2500 rpm to remove sediments. One hundred microliters of the supernatant per well were transferred to another 96 well plate and mixed with 100 μL of 2% (w/v) p-dimethylaminobenzaldehyde in acetic acid. The yellow color derived from kynurenine was measured at 492 nm using a SPECTRAmax 250 microplate reader. L-Kynurenine, used as the standard, was prepared in a series of concentrations (200, 100, 50, […], 12.5, 6.3, 3.2, 1.6 μM) in 100 μL HeLa cell culture media and analyzed in the same procedure. The percent inhibition at individual concentrations was determined and the average values of duplicates were obtained. The data was processed using nonlinear regression to generate IC50 values (Prism Graphpad).

[2] = in vivo; cited from earlier work
[3] = test system: IFN-γ stimulated HeLa cells; test: Hela cell uptake of radioligands; format: cell-based, human
Protocol: HeLa cells were seeded in a 24 well culture plate at a density of 2×10^4 per well in 400 μL culture media w/FBS. After grown overnight (16 h), human IFN-γ (25 ng/well, 50 ng/mL final concentration) in 100 μL DMEM w/FBS were added into cells. The cells were rinsed with phosphate-buffered saline (PBS), and 500 μL of Earle's Minimum Essential Medium (EMEM) (ATCC 30-2003) and 10% fetal bovine serum was added to the culture wells. […] At each given time point, the cell supernatants were discard and wash the cells with PBS (0.5 mL) 3 times, the cells were subsequently lysed with 150 μL of trypsin-EDTA in each well and incubated for 5 min at 37° C., then collect the cell digestion solution and add another 150 μL of PBS into each well to collect the cells. All measurements were performed with a γ-counter (Wizard; PerkinElmer).
HeLa, PANCO2,HCT116 and 4T1 cells were selected and those cells were then cultured in the absence or presence of IFN-γ as described followed by Western Blotting to confirm IDO expression.

Hela tumor xenografts = test: MicroPET imaging of Hela tumor xenografts; format: in vivo, mice; settings: for tracer accumulation in tumor: PET
Protocol: Female athymic C57BL/6 nude mice (4-6 weeks old) were ordered from Charles River Laboratories (Stone Ridge, N.Y., U.S.A.) and housed in a temperature and humidity controlled room. After 7 to 14 days of acclimatization, a total of 5×10^6 Hela cells were inoculated subcutaneously in 200 μL serum-free medium into the right flank of hind leg. Once tumors reach an appropriate size (3-4 mm in diameter) the mice were randomized into 5 groups (4/group). Then the mice in every group were randomized into two subgroups (rHu IFN-γ treatment or no rHu IFN-γ treatment). All the rHu IFN-γ treatment mice were injected i.p. of 1.5×10^5 U rHu IFN-γ/mouse/day. 24 h later, group one of mice were anesthetized by gas inhalation (2% vol/vol isoflurane in oxygen), then mice were euthanized and tumor tissues were dissected for further IDO western blotting and IHC in vitro. The same operation can be repeated at 48 h, 72 h, 96 h and 120 h points.
In order to evaluate the in vivo imaging performance of [^18F]IDO49 to IDO tumors, microPET imaging was performed on nude mice bearing Hela tumor xenografts both rHu IFN-γ treatment and none rHu IFN-γ treatment using the Inveon small-animal PET/CT scanner (Siemens). Anesthesia was induced with 4-5% isoflurane and maintained with 1-3% isofluorane delivered with a mixed air/oxygen through a closed nose cone throughout the PET imaging session. Mice bearing Hela tumor xenografts with rHu IFN-γ treatment were injected with 3.70-7.40 MBq (100-200 μCi) of [^18F]IDO49 in 200 μL of saline, and the baseline control mice with none rHu IFN-γ treatment was injected with the same radiotracer. PET data were collected for 90 min following radioligand administration and reconstructed into 38 dynamic frames of increasing length (6×10, 6×20, 4×30, 9×60, 2×180, 8×300, and 3×600 s). For a comparative study, [^11C]AMT PET imaging scan was also performed on Hela tumor mice at 60 min after intravenous injection of [^11C]AMT PET (3.7 MBq). The images were reconstructed and the regions of interest (ROIs) were drawn over the tumor and muscle, PET images were converted to percent injected dose per gram (%ID/g of tissue) for evaluation of tumor specificity. Image analysis was performed using the Inevon Research Workplace software.

[4] = Lipophilicity determination (shake-flask, n-octanol/PBS pH 7.4); format: physicochemical; settings: n-octanol/buffer pH 7.4, shake-flask
Protocol: [^18F]IDO49 (2-30 kBq in 30 μL of water) was added to a two-layer system of n-octanol (500 μL) and 0.1M phosphate buffered saline (PBS) pH 7.4 (500 μL) in an eppendorf vial. The vessel was vortexed for 3 min and then centrifuged at 10000 rpm for 2 min. An aliquot of each layer (100 μL) was assessed for radioactivity in a wiper counter. The partition coefficient (logD7.4) was calculated as the decimal logarithm of the ratio between the counted radioactivity in the n-octanol layer and the counted radioactivity in the aqueous layer. logD7.4=(Count of n-octanol sample−Count of background)/(Count of PBS sample−Count of background). CLogP (calculated LogP) values were determined using CHEMBIODRAW ULTRA 12.0 software (Cambridge soft. Perkin-Elmer, Waltham, Mass., USA).
LogD (n-octanol/buffer pH 7.4 partition coefficient) of [^18F]IDO49 was measured using the shake-flask method and the calculated LogP (cLogP, n-octanol/water partition coefficient) was determined using CHEMBIODRAW software.

[5] = molecular target: T3, IDO in IFN-γ stimulated HeLa cells (Homo sapiens, UniProt P14902); test: Competitive cell-binding assay; format: cell-based; settings: blocking with INCB024360 and NLG919, FIG. 8
T3 construct: native IDO in HeLa cells; endogenous in cells; host or cells: HeLa cells stimulated with human IFN-γ
Protocol: All measurements were performed with a γ-counter (Wizard; PerkinElmer). The specificities of radioligands were determined as percentage.

[6] = IFN-γ treatment Hela tumor mice

T2 sequence (P14902 whole entry): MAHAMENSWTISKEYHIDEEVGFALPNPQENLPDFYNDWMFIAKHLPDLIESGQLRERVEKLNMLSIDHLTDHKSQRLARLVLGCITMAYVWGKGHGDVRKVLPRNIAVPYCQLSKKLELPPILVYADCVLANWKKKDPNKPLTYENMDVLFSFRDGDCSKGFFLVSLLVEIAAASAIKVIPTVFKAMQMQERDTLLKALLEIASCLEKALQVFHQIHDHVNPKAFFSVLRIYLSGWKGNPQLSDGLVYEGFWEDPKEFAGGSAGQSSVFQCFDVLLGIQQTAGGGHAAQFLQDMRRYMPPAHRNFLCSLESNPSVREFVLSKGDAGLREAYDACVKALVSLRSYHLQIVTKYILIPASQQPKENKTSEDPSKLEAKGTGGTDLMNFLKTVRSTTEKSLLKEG
T1 sequence (P14902 whole entry): as above
T3 sequence (P14902 whole entry): as above

- affinity of human IDO for compound (Human IDO): higher affinity
- potency in HeLa cell-based assays compared with enzyme assays [1]: slightly more potent
- IFN-γ induced IDO activity in HeLa cell lines inhibited by IDO inhibitors [1]: inhibited
SMILES: Nc1nonc1C(=NO)Nc1ccc(F)c(Cl)c1 [IDO5L, 4-amino-N-(3-chloro-4-fluorophenyl)-N′-hydroxy-1,2,5-oxadiazole-3-carboximidamide, reference compound]

- affinity of human IDO for compound (Human IDO): higher affinity
- potency in HeLa cell-based assays compared with enzyme assays [1]: slightly more potent
- IFN-γ induced IDO activity in HeLa cell lines inhibited by IDO inhibitors [1]: inhibited
SMILES: ON=C(Nc1ccc(F)c(Cl)c1)c1nonc1NCCF [IDO49]

SMILES: NS(=O)(=O)NCCNc1nonc1C(=NO)Nc1ccc(F)c(Br)c1 [INCB024360]
- clearance t1/2 [2]: < 30 min

SMILES: Cn1cc(C[C@H](N)C(=O)O)c2ccccc21 [L-1-MT]
- inhibition of IDO activity (cell uptake of [18F]IDO5L) ([3]; Hela cells, 120 mins, FIG. 7B): strong inhibition

SMILES: C[C@](N)(Cc1c[nH]c2ccccc12)C(=O)O [[^11C]AMT, α-[^11C] methyl-L-tryptophan, reference compound]
- tracer accumulation in tumor (Hela tumor xenografts; [6]): significant tracer accumulation

- logD7.4 [4]: 2.13±0.11
SMILES: Nc1nonc1C(=NO)Nc1ccc([18F])c(Cl)c1 [[^18F]IDO5L, [^18F] 4-amino-N-(3-chloro-4-fluorophenyl)-N′-hydroxy-1,2,5-oxadiazole-3-carboximidamide, reference compound]
- uptake in IFN-γ stimulated HeLa cells compared with other cell lines ([3]; all time points, PANCO2, HCT116, 4T1 as comparison): remarkably greater

- logD7.4 [4]: 1.37±0.02
- radioactive uptake in the kidney (Hela tumor xenografts; 60 min dynamic scan): high
- tumor to muscle (T/M) relative uptake ratio, peak (Hela tumor xenografts; 60 min post-injection, IFN-γ treatment Hela tumor mice): 2.29±0.05
- tracer accumulation in tumor (Hela tumor xenografts; [6]): selectively accumulated
- average SUV of the tumor, IFN-γ treatment vs none treatment (Hela tumor xenografts; summed images of dynamic microPET scans): higher than none treatment
- specific binding to IDO in vitro [5]: high specific binding
SMILES: ON=C(Nc1ccc(F)c(Cl)c1)c1nonc1NCC[18F] [[^18F]IDO49]
- retention in IDO expression Hela cell line ([3]; IFN-γ stimulation, different time points): retained at favorable levels
